The NIST ThermoML archive (doi:10.1021/je030107c)

Experiments:
[1] = refractive index (Na D-line) (dimensionless); xn = mol fraction of the nth substance listed; details: 101.3 kPa, Liquid, Standard Abbe refractometry
[2] = xn = mol fraction of the nth substance listed; details: 101.3 kPa, Liquid; for viscosity: Capillary tube (Ostwald / Ubbelohde) method; for speed of sound: Linear variable-path acoustic interferometer; for mass density: Pycnometric method

C1COCCO1 [1,4-dioxane] + OCCO
Details | mass density, 298.15 K [kg/m3] | mass density, 303.15 K [kg/m3] | mass density, 308.15 K [kg/m3] | refractive index, 298.15 K | refractive index, 303.15 K | refractive index, 308.15 K | speed of sound, 298.15 K [m/s] | viscosity, 298.15 K [mPa·s] | viscosity, 303.15 K [mPa·s] | viscosity, 308.15 K [mPa·s]
[1], x1 = 0.1031 | – | – | – | 1.4294 | 1.4279 | 1.4262 | – | – | – | –
[1], x1 = 0.2072 | – | – | – | 1.4284 | 1.4268 | 1.425 | – | – | – | –
[1], x1 = 0.3021 | – | – | – | 1.4275 | 1.4256 | 1.4236 | – | – | – | –
[1], x1 = 0.4246 | – | – | – | 1.426 | 1.424 | 1.4219 | – | – | – | –
[1], x1 = 0.5042 | – | – | – | 1.4248 | 1.4226 | 1.4204 | – | – | – | –
[1], x1 = 0.5986 | – | – | – | 1.4238 | 1.4216 | 1.4193 | – | – | – | –
[1], x1 = 0.6914 | – | – | – | 1.423 | 1.4207 | 1.4186 | – | – | – | –
[1], x1 = 0.7906 | – | – | – | 1.422 | 1.4196 | 1.4172 | – | – | – | –
[1], x1 = 0.8909 | – | – | – | 1.421 | 1.4187 | 1.4163 | – | – | – | –
[1], x1 = 1 | – | – | – | 1.4201 | 1.417 | 1.4143 | – | – | – | –
[2], x1 = 0.1031 | 1100.6 | 1096.6 | 1092.8 | – | – | – | 1620 | 9.007 | 7.262 | 5.518
[2], x1 = 0.2072 | 1090.6 | 1086.4 | 1082.4 | – | – | – | 1577 | 6.285 | 5.149 | 4.013
[2], x1 = 0.3021 | 1082 | 1077.6 | 1073.1 | – | – | – | 1537 | 4.654 | 3.849 | 3.044
[2], x1 = 0.4246 | 1071.1 | 1066.5 | 1061.7 | – | – | – | 1485 | 3.177 | 2.68 | 2.181
[2], x1 = 0.5042 | 1064.5 | 1059.7 | 1054.7 | – | – | – | 1456 | 2.566 | 2.184 | 1.802
[2], x1 = 0.5986 | 1056.8 | 1051.7 | 1046.8 | – | – | – | 1426 | 2.012 | 1.728 | 1.444
[2], x1 = 0.6914 | 1049.6 | 1044.5 | 1039.5 | – | – | – | 1400 | 1.663 | 1.447 | 1.229
[2], x1 = 0.7906 | 1042.4 | 1037.1 | 1031.8 | – | – | – | 1381 | 1.388 | 1.226 | 1.063
[2], x1 = 0.8909 | 1035.2 | 1029.9 | 1024.5 | – | – | – | 1369 | 1.212 | 1.081 | 0.949
[2], x1 = 1 | 1027.6 | 1021.9 | 1016.2 | – | – | – | 1347 | 1.166 | 1.069 | 0.984
